Results reported in patent US6740523B2 (priority 1997, dated 2004).

Legend:
HCT116 cells = assay type: cell-based, human
[1] = system: σ expression in HCT116 and other CRC cell lines; assay: Northern blot of σ expression following adriamycin treatment; assay type: cell-based, human; conditions: 0.2 ug/ml adriamycin
Experimental: (FIG. 1B) σ Expression following adriamycin treatment. Seven different CRC cell lines were treated with 0.2 ug/ml adriamycin (+) or vehicle (−) as indicated. RNA was prepared 24 hours following adriamycin treatment. Autoradiographs of Northern blots performed with σ, p21 and EF1 probes are shown. The p53 status of the respective cell lines is indicated on the top.
Northern blotting with a radiolabeled probe generated from σ cDNA was performed to confirm the SAGE results. […] Previous reports have shown that σ expression is limited to epithelial cells.
Total RNA was prepared by CsCl gradient ultracentrifugation of guanidine isothiocyanate-lysed cells as described. […].

SMILES	effect on polyploidization of Ad-σ infected cells (HCT116 cells)	induction of σ expression ([1]; HCT116 cells, RNA 24 hours after treatment)	σ expression in other colorectal cancer cell lines ([1]; several other CRC cell lines, 24 hours)
CN[C@H]1CCc2cc(OC)c(OC)c(OC)c2-c2ccc(OC)c(=O)cc21 [colcemid]	did not prevent this polyploidization		
COc1cccc2c1C(=O)c1c(O)c3c(c(O)c1C2=O)C[C@@](O)(C(=O)CO)C[C@@H]3O[C@H]1C[C@H](N)[C@H](O)[C@H](C)O1 [adriamycin]		similarly induce σ expression	express σ at relatively high levels
